Results taken from US8551999B2, “Heterocyclic compound and pharmaceutical composition thereof” (Otsuka Pharmaceutical Co., Ltd., priority 2007, dated 2013).

Columns and labels:
[1] = test system: LI90 cells, a human hepatic stellate cell line; experiment: Inhibitory effect on collagen synthesis (in vitro); assay type: cell-based; conditions: in the presence of recombinant human TGF-β1, 3H-proline labelled collagen in supernatant
Method: Inhibitory Effect on Collagen Synthesis (In Vitro)
LI90 cells, a human hepatic stellate cell line, were suspended in DMEM (Dulbecco's modified eagle medium) supplemented with 10% inactivated FBS (fetal bovine serum), seeded on a 12-well plate and cultured in a CO2 incubator (preset temperature: 37° C., preset CO2 concentration: 5%). After being cultured for 24 hours, the cells were washed with D-PBS (Dulbecco's phosphate buffered saline), placed in MEM (Eagle's minimum essential medium) supplemented with 0.1% inactivated FBS and then cultured in a CO2 incubator. After being cultured for 3 days, the cells were again washed with D-PBS, placed in MEM (Eagle's minimum essential medium) supplemented with 0.1% inactivated FBS and treated with or without a test compound in the presence of […] recombinant human TGF-β1 (transforming growth factor-β1) in a CO2 incubator for 16 hours. After the incubation, the cells were washed with D-PBS and the medium was replaced with MEM containing 0.25 mM ascorbate. A radio-labeled compound, ^3H-proline, was then added to the culture medium to radio-label the collagen proteins produced. After being cultured for 24 hours, the supernatant was collected and the collagen proteins were extracted from the supernatant as acid-soluble fractions. The amount of collagen produced was determined by measuring the radioactivity contained in the fractions. A concentration of test compound that produced 50% inhibition [IC50 value (nM)] on collagen synthesis was calculated by comparing the radioactivity count in a supernatant of test-compound-treated cells with that of untreated cells (control).

[2] = test system: human hepatic cancer cells (HuH-7); experiment: Antiproliferative effect on cancer cells (in vitro), sulforhodamine B method, HuH-7; assay type: cell-based; conditions: HuH-7 cells, 5 days incubation with test compound
Method: (§1) Growth inhibition of human hepatic cancer cells (HuH-7) was determined by the sulforhodamine B method based on the method of Skehan P. et al. (J Natl Cancer Inst. 1990 Jul. 4; 82(13): 1107-12). In the study, HuH-7 cells were seeded on DMEM medium containing 10% fetal bovine serum in a 96-well microplate. After 24-hour incubation at 37° C. in the presence of 5% carbon dioxide, the test compound was added and the cells were incubated for another 5 days. After incubation, a trichloroacetic acid solution was added to yield the final concentration of 10% and the cells were left to stand at 4° C. for 1 hour to fix. Then, the cells were washed with water to remove the medium and trichloroacetic acid and dried in the air. The dried cells were stored at 4° C. until they were stained with sulforhodamine B. To each well, 1% acetic acid solution containing 0.4% sulforhodamine B was added and left to stand for 20 to 30 minutes at room temperature. After discarding the supernatant, each well was washed with 1% acetic acid solution, and 10 mM Tris ([…]) solution was added while stirring to elute the dye taken into the cells. Then, the optical density was determined at the measurement wavelength of 492 nm and the reference wavelength of 690 nm, and the difference was calculated. The cell growth activity in each well was defined as the value determined by subtracting the OD in the control well not containing cells (the difference in absorbance between 492 nm and 690 nm) from that in the test well.
(§2) The 50% inhibitory concentration (IC50 (nM)) of the test compound was determined by comparing the cell growth activity in the well containing the test compound with that of the control not containing the test compound.

[3] = test system: human pancreatic cancer cells (HPAC); experiment: Antiproliferative effect on cancer cells (in vitro), sulforhodamine B method, HPAC; assay type: cell-based; conditions: 5 days incubation with test compound
Method: as §1, §2
The growth inhibition on human pancreatic cancer cells (HPAC) was also determined by the above method using HPAC instead of HuH-7 and RPMI 1640 medium containing 10% fetal bovine serum instead of the DMEM medium containing 10% fetal bovine serum.

[4] = test system: human chronic myelocytic leukemia cells (KU812); experiment: Antiproliferative effect on cancer cells (in vitro), WST-8 assay, KU812; assay type: cell-based; conditions: 5 days incubation with test compound
Method: The growth inhibition on human chronic myelocytic leukemia cells (KU812) was determined by a WST-8 assay according to the method of Singh A K, et al. (Cancer Lett. 1996 Oct. 1; 107(1): 109-15.). In this method, KU812 cells were seeded in RPMI 1640 medium containing 10% fetal bovine serum in a 96-well microplate and incubated at 37° C. for 24 hours in the presence of 5% carbon dioxide. Then, the test compound was added and the cells were incubated for another 5 days. After incubation, 15 μL of 5 mM WST-8 (2-(2-methoxy-4-nitrophenyl)-3-(4-nitrophenyl)-5-(2,4-disulfenyl)-2H-tetrazolium, monosodium salt) was added and the cells were incubated for 2 hours. After the 2-hour incubation, 15 μL of 1% SDS (sodium dodecyl sulfate) was added and the optical density was determined at the measurement wavelength of 450 nm and the reference wavelength of 630 nm, and the difference was calculated. The cell growth activity in each well was defined as the value determined by subtracting the OD in the control well not containing cells (the difference in absorbance between 492 nm and 690 nm) from that in the test well.
as §2

[5] = test system: Human hepatic cancer cells (HuH-7); experiment: Antitumor effect on hepatic cancer cells, HuH-7 (in vivo); conditions: SCID mice bearing HuH-7 tumor, 10 mg/kg/day orally, once daily, 9 consecutive days; ratio of relative tumor volume treatment/control
Method: Human hepatic cancer cells (HuH-7) were transplanted in SCID mice (6 females/group) and the inhibitory effect of the invention on their growth was examined. In the study, 0.2 mL of a cell suspension adjusted to contain 2.5×10^7 cells/mL was injected subcutaneously in the right axilla to prepare tumor bearing mice. When the tumor diameter became 5 mm or more, the animals were allocated to groups based on the tumor volume. The test compound was administered orally as a suspension in 5% gum arabic, once daily, for 9 consecutive days. The control group received 5% gum arabic. Tumor volumes were measured on the following day of the last administration. The relative tumor volume was determined by calculating the ratio of the tumor volume on the following day of the last administration to that at group allocation. The ratio of the relative tumor volume in the treatment group to that in the control group (T/C %) was calculated as the index for the effect. Relative tumor volume=Tumor volume on the following day of the last administration/Tumor volume at group allocation. T/C %=(Mean relative tumor volume in the treatment group/Mean relative tumor volume in the control group)×100.

STAT3 = experiment: Inhibitory effect on IL-6-induced STAT3 phosphorylation in human myeloma cells (in vitro); assay type: cell-based; conditions: U266B1 human myeloma cells, IL-6 1 ng/mL, pSTAT3 (Y705) by flow cytometry
Method: The inhibitory effect of the test compound on phosphorylation of STAT3 (signal transducer and activator of transcription-3) in human myeloma cells ([…]) induced by interleukin-6 (IL-6) was examined using the modified method of Tochizawa S. et al. (J Immunol Methods. 2006 Jun. 30; 313(1-2): 29-37). In the study, U266B1 cells were seeded in an RPMI 1640 medium containing 10% fetal bovine serum (FBS) in a 12-well plate and incubated at 37° C. for 2 hours in the presence of carbon dioxide. After incubation, IL-6 was added to yield the concentration of 1 ng/mL and the cells were incubated at 37° C. for 15 minutes in the presence of 5% carbon dioxide. After fixation of the cells by the addition of a buffer containing formaldehyde (Lyse/Fix Buffer, BD Biosciences) at room temperature for 10 minutes, the suspension was centrifuged to remove the supernatant and the cells were treated with ice-cold methanol for 10 minutes to improve the permeability of the cell membrane. The cells were centrifuged to remove methanol and washed twice with Dulbecco's phosphate buffered saline (D-PBS) containing 2% fetal bovine serum (FBS). A fluorescence-labeled anti-phosphorylated STAT3 (pSTAT3) antibody (Alexa Fluor 488-labeled anti-pSTAT3 (Y705) antibody, BD Biosciences) was added for staining in an ice bath for 30 minutes.
The cells were washed once with 2% FBS-containing D-PBS and suspended in 2% FBS-containing D-PBS, and the fluorescence intensity was determined using a flow cytometer (FACS Sort, BD Biosciences). The ratio of fluorescence intensity in the test group to the control group (T/C) was determined from the difference in the geometric mean of pSTAT3 fluorescence intensity between the test compound group of each concentration and the non-stimulated control group according to the following equation by defining the difference in the geometric mean of pSTAT3 fluorescence intensity between the IL-6 induced control and the non-stimulated control as 100%. T/C(%)=([…] of pSTAT3 fluorescence intensity in the cells treated with the test compound—geometric mean of pSTAT3 fluorescence intensity in non-stimulated control)/(geometric mean of fluorescence intensity of IL-6-induced pSTAT3 in the control−geometric mean of pSTAT3 fluorescence intensity in non-stimulated control)×100.
The concentration of the test compound inhibiting phosphorylation of STATS at 50% (IC50; concentration of the test compound corresponding to 50% T/C(%)) was determined using T/C(%) values at the respective concentrations and defined as the index for the inhibitory activity.

IC50 [1] [µM]	IC50 ([2]; Homo sapiens, 120 h) [µM]	IC50 ([3]; Homo sapiens, 120 h) [µM]	IC50 ([4]; Homo sapiens, 120 h) [µM]	IC50 (STAT3) [µM]	melting point [°C]	IC50 [2] [µM]	IC50 [3] [µM]	IC50 [4] [µM]	Compound	T/C % [5] [%]
< 0.01	< 0.01	< 0.07	< 0.002	< 0.01	146 to 147	–	–	–	CN(C(=O)c1ccc(C(F)(F)F)cc1)c1ccc(Oc2ccc3c(c2)cc(C(=O)N2CCN(Cc4ccc(OC(F)F)cc4)CC2)n3C)nc1.O=C(O)/C=C\C(=O)O [Example 401, N-(6-{2-[4-(4-Difluoromethoxybenzyl)piperazine-1-carbonyl]-1-methyl-1H-indol-5-yloxy}pyridin-3-yl)-N-methyl-4-trifluoromethyl-benzamide maleate]	<50
–	–	–	–	< 0.01	230.8 to 231.4	–	–	–	Br.CN(C(=O)c1ccc(C(F)(F)F)cc1)c1ccc(Oc2ccc3cc(C(=O)N4CCN(Cc5ccc(OC(CF)CF)cc5)CC4)n(C)c3c2)nc1 [Example 445, N-[6-(2-{4-[4-(2-Fluoro-1-fluoromethylethoxy)benzyl]piperazine-1-carbonyl}-1-methyl-1H-indol-6-yloxy)pyridin-3-yl]-N-methyl-4-tri-fluoromethylbenzamide hydrobromide]	<50
< 0.01	–	–	–	–	–	< 0.01	< 0.07	< 0.002	Br.CN(C(=O)c1ccc(OC(F)(F)F)cc1)c1ccc(Oc2ccc3cc(C(=O)N4CCN(Cc5ccc(OC(F)F)cc5)CC4)n(C)c3c2)nc1 [Example 473, N-(6-{2-[4-(4-Difluoromethoxybenzyl)piperazine-1-carbonyl]-1-methyl-1H-indol-6-yloxy}pyridin-3-yl)-N-methyl-4-trifluoro-methoxybenzamide hydrobromide]	<50
–	–	–	–	< 0.01	192.5 to 195.4	–	–	–	Cc1cc(C(F)(F)F)ccc1C(=O)Nc1ccc(Oc2ccc3cc(C(=O)N4CCN(Cc5ccc(OC(CF)CF)cc5)CC4)n(C)c3c2)nc1.Cl [Example 493, N-[6-(2-{4-[4-(2-Fluoro-1-fluoromethylethoxy)benzyl]piperazine-1-carbonyl}-1-methyl-1H-indol-6-yloxy)pyridin-3-yl]-2-methyl-4-tri-fluoromethylbenzamide hydrochloride]	<50
–	< 0.01	< 0.07	< 0.002	–	–	–	–	–	CC(C)Oc1ccc(CN2CCN(C(=O)c3cc4ccc(Oc5ncc(N(C)C(=O)c6ccc(C(F)(F)F)cc6)cn5)cc4n3C)CC2)cc1.Cl [Example 521, N-(2-{2-[4-(4-Isopropoxybenzyl)piperazine-1-carbonyl]-1-methyl-1H-indol-6-yloxy}pyrimidin-5-yl)-N-methyl-4-trifluoromethyl-benzamide hydrochloride]	<50
